We go through five molecules from US9138434B2, “Octahydrothienoquinoline derivative, pharmaceutical composition comprising derivative, and use of these” (KISSEI PHARMACEUTICAL CO., LTD., priority 2011, dated 2015).

The EC50 is the concentration giving half of the maximal effect.

Where two headings read alike, the source gives them in different places.

The target of experiment [1] is T1, human dopamine D2 receptor (Homo sapiens, UniProt P14416).
T1 construct: accorded to it of human dopamine D2 receptor (NM1-000795) registered on NCBI completely; expressed in transfected cells; membrane homogenates
T1 sequence (P14416 whole entry): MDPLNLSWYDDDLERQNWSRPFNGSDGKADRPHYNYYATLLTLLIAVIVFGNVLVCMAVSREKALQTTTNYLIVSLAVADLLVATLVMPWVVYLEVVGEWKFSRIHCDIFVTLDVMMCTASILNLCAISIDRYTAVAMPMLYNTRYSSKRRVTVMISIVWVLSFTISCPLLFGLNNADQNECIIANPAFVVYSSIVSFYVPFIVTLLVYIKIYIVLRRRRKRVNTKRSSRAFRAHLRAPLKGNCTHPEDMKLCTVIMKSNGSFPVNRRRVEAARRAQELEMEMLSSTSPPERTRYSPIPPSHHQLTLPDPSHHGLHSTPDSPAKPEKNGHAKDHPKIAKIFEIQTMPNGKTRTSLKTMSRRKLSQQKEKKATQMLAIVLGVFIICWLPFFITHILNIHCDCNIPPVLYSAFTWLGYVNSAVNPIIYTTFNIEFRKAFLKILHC
Briefly: Stimulating activities on human dopamine D2 receptor, [35S]GTPγS binding to hD2R#7 cell membrane homogenates. The class given is biochemical. The method, then:
Identification Test of Stimulating Activities on Human Dopamine D2 Receptor
4) Preparation of Membrane Homogenates from hD2R#7 Cells
(2) Preparation of Membrane Homogenates from hD2R#7 Cells
The cells, which were grown to confluence in 150 mm dishes (IWAKI), were harvested with isotonic buffer (50 mM Tris (Sigma), 2 mM ethylenediamine-tetraacetic acid (Invitrogen), and 125 mM sodium chloride (Wako Pure Chemicals), pH 7.4) and centrifuged at 1880×g and 4° C. for 10 minutes, and the cell pellets were then suspended in isotonic buffer. After being subjected to one cycle of freezing and thawing, the cells were centrifuged at 1880×g and 4° C. for 10 minutes, and the cell pellets were suspended in isotonic buffer. The cells were centrifuged at 1880×g and 4° C. for 10 minutes, and the cell pellets were suspended in isotonic buffer and homogenate buffer (10 mM sodium bicarbonate (Nacalai) and 5 mM ethylenediamine-tetraacetic acid, pH 7.5). The volume ratio of isotonic-to-homogenate buffer was 2. The cells were sonicated and centrifuged at 1880×g and 4° C. for 10 minutes, and the supernatants were ultracentrifuged at 80000×g and 4° C. for 30 minutes. The final cell pellets were suspended in homogenate buffer containing protease inhibitor cocktail (Nacalai) and stored at −80° C. until use. The protein concentration was determined using BCA Protein Assay Kit (Pierce) in accordance with the manufacturer's instructions.
5) Determination of Stimulating Activities of Human Dopamine D2 Receptor
The stimulating activities of human dopamine D2 receptor was determined by measuring the binding potential of [^35S]-guanosine 5′-[gamma-thio]triphosphate ([^35S]GTPγS, PerkinElmer) according to the method described by Newman-Tancredi A. et al. (Naunyn-Schmiedeberg's Arch Pharmacol, 1999, vol. 359, pp. 447-453) with a minor modification. Test compounds and dopamine hydrochloride (Fluka) as positive control were dissolved in dimethyl sulfoxide (CARLBIOCHEM), resulting in 30 mM. The both compounds were diluted with assay buffer (50 mM Tris, 100 mM sodium chloride, 5 mM magnesium chloride (Nacalai), 1 mM ethylenediamine-tetraacetic acid, 1 mM dithiothreitol (Wako Pure Chemicals), 10 μM guanosine diphosphate (Wako Pure Chemicals) and 0.5% bovine serum albumin (Sigma), pH 7.4) to a final concentration of 100 pM (only test compounds), 1 nM, 10 nM, 100 nM, 1 μM, 10 μM and 100 μM (only dopamine hydrochloride). The above membrane homogenates and [^35S]GTPγS were diluted with assay buffer to a final concentration of 0.06 mg/mL and 0.6 nM, respectively. The serial diluted compounds (50 μL), the diluted membrane homogenates (50 μL) and the diluted [^35S]GTPγS (50 μL) were mixed on multi-screen 96-well plate (Millipore) and shaken lightly at room temperature for 60 minutes. The reaction was terminated by vacuum filtration with three times washes of ice-cold wash buffer (50 mM Tris, 100 mM sodium chloride, 5 mM magnesium chloride, and 1 mM ethylenediamine-tetraacetic acid, pH 7.4). After drying the bottoms of the plate at 60° C., MicroScinti-40 (PerkinElmer) (30 μL) was added in the plate. The tops of the plate were sealed by TopSeal-A (PerkinElmer), and the radioactivity was determined in a TopCount NXT (registered mark) (PerkinElmer) after shaking lightly for 5-10 minutes. The data was analyzed by nonlinear regression and sigmoidal dose-response curve fitting using GraphPad PRISM 4.0 (GraphPad Software), and values of EC50 (concentration of the compound producing half the maximal effect of the compound) were calculated. The data was presented as mean value (n=2).
A general note: GTPγS resists hydrolysis and so accumulates on activated G proteins.

For experiment [2], the target named is T2, human serotonin 5-HT2B receptor (Homo sapiens, UniProt P41595).
T2 construct: expressed in transfected cells; host or cells: HEK293, transient transfection (Lipofectamine 2000)
T2 sequence (P41595 whole entry): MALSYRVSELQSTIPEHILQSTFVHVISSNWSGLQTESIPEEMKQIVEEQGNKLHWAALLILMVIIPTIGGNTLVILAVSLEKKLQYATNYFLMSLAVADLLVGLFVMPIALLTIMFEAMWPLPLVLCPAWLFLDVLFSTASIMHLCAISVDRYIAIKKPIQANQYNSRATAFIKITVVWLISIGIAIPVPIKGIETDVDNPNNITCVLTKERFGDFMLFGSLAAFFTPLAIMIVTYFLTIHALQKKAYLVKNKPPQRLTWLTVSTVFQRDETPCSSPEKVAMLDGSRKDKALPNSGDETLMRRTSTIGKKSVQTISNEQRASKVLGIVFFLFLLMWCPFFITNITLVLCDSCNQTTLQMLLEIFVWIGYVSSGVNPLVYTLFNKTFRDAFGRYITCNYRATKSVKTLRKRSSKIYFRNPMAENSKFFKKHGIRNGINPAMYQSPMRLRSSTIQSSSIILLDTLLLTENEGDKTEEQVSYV
Briefly: Stimulating activities on human serotonin 5-HT2B receptor, intracellular calcium in forced expression HEK293 cells. In kind it is cell-based. The method, then:
Identification Test of Stimulating Activities on Human Serotonin 5-HT2B Receptor
The PCR was performed using forward primer depicted as sequence ID No. 4, reverse primer depicted as sequence ID No. 5 and KOD-Plus-Ver.2 (TOYOBO) as template of human brain hippocampus cDNA (Clontech). The PCR product was inserted into a plasmid (pcDNA3.1/V5-His-Topo (registered mark)). The PCR product-inserted plasmid was transformed in E. coli (One Shot TOP10 Chemically Competent). That E. coli was incubated in LB agar medium contained 50 μg/mL ampicillin for a day. A selected colony was incubated in LB medium contained 50 μg/mL ampicillin and PCR product-inserted plasmid was purified with QIAprep Spin Miniprep Kit (QIAGEN).
Mostly confluent HEK293 cells were washed with PBS, followed by exfoliation with 0.05% trypsin-EDTA and the cells were suspended in D-MEM liquid medium (phenol red-free, low glucose, pyruvic acid were contained) containing fetal bovine serum (final concentration: 10%) and GlutaMax (registered mark)I (final concentration: 2 mM). The suspension was scattered at 5×10^4 cells/100 L/well on poly-D-lysine-coated 96-well microplate (BD BioCoat (registered mark)). The scattered cells were cultured in 5% CO2 incubator at 37° C. Human serotonin 5-HT2B receptor expression plasmid was transfected in that cells according to the procedure seeing below.
Human serotonin 5-HT2B receptor expression plasmid and Lipofectamine (registered mark) 2000 (Invitrogen) were diluted to 0.008 g/L and 0.016 g/L each other with OPTI-MEM (registered mark)I Reduced-Serum Medium and incubated at room temperature. After incubation, the human serotonin 5-HT2B receptor exoression plasmid-diluted liquid and Lipofectamine (registered mark) 2000-diluted liquid were mixed at an equal volume and incubated at room temperature to form a complex. The complex was dispensed at 50 μL/well on the cells prepared above. The cells were incubated in 5% CO2 incubator at 37° C. for 2 days. After incubation, the cells were used as human serotonin 5-HT2B receptor forced expression cells for measurement of intracellular calcium concentration.
3) Determination of Stimulating Activities of Human Serotonin 5-HT2B Receptor
The stimulating activities of human serotonin 5-HT2B receptor was determined by measuring of intracellular calcium concentration. The 30 mM dimethyl sulfoxide (DMSO) solution contained test compounds or serotonin hydrochloride (Sigma) as positive control, was diluted with assay buffer ((HBSS), 20 mM HEPES, 1.3 mM calcium chloride, 0.5 mM magnesium chloride and 0.4 mM magnesium sulfate were contained, pH7.4) to appropriate concentration.
The forced expression cells were washed with assay buffer, and 100 μL/well of fluorescent calcium indicator (Fluo-4 NW Calcium Assay Kit) was added and incubated in 5% CO2 incubator at 37° C. After incubation, 50 μL/well of each test compound was added, and the concentration of intracellular calcium was measured as fluorescent signal with FlexStation (registered mark) II (Molecular Devices). The data was analyzed by nonlinear regression and sigmoidal dose-response curve fitting using GraphPad PRISM 4.0, and values of EC50 (concentration of the compound producing half the maximal effect of the compound) were calculated. The data was presented as mean value (n=2).

The test system of experiment [3] is unilateral 6-OHDA-lesioned hemi-Parkinsonian rats. Briefly: Contralateral rotational behavior in unilateral 6-hydroxydopamine-lesioned hemi-parkinsonian rats. The following applies: 10 mg/kg oral, fasted rats, observed up to 24 hours, mean. In kind it is in vivo, rat (male Sprague-Dawley). On the procedure:
6-OHDA was dissolved at 2 mg/mL in a physiolosical saline solution containing 0.2% L-ascorbic acid. Desipramine was dissolved at 10 mg/mL in a physiolosical saline solution in a hot-water bath. Apomorphine was dissolved at 0.1 mg/mL in a physiolosical saline solution. […] Test compounds were dissolved in a solution containing 2% DMA, 100 or 200 mol % hydrochloric acid, and 98% of a 0.5% methyl cellulose solution. […] (Eur J Pharmacol, 2000, vol. 408, P. 249-255) with a minor modification. Male Sprague-Dawley rats (6-weeks-old, Charles River Laboratories Japan Inc.) were anaesthetized with intraperitoneal somnopentyl (45 mg/kg) injection and placed in a stereotaxic frame (Narishige). In order to prevent 6-OHDA-induced damage of noradrenergic neurons, desipramine (25 mg/kg) was intraperitoneally injected 30 minutes before the 6-OHDA injection. After the bregma identification via a middle calvarial incision, the skull was drilled using a dental drill at the site of 6-OHDA injection. The lesion was made by injecting 6-OHDA (8 μg in 4 μL at a speed of 1 μL/minute) unilaterally into the left medial forebrain bundle by using a injection cannula (30 gauge needle) connected to a microsyringe (Hamilton) (the lesion coordinates; A/P −2.5 mm, L/M −1.8 mm, and V/D −8.0 mm, from the bregma point and surface of the skull). The cannula was carefully removed from the animal after keeping placed on the lesion site for 5 minutes. The skull was filled its hole with dental cement, disinfected, and the scalp incision was surgically sutured. Animals recovered from anesthesia were housed as usual until the day of the experiment. 3) Determining of Contralateral Rotational Behavior Three weeks after the lesion, rats were tested on the basis of their contralateral rotational behavior (single rotation was defined as a 360° turn) in response to 0.1 mg/kg apomorphine given subcutaneously. For behavioral observation, rats were placed in plastic cylinders of a diameter of 30 cm, and its contralateral rotational behaviors were videotaped and quantified by rat-rotation auto counting system R-RACS (Kissei Wellcom). On the experimental day, animals were fasted overnight, and test compounds were orally administrated at doses of 10 mg/kg. […] Total number of rotations and the duration of the response in experimental period were presented as mean value.

The mark [4] stands for this setting: [35S]GTPγS binding, membrane homogenates of HEK293 cells stably expressing human D2 receptor, mean, n=2, read-out: EC50.
[5] abbreviates: intracellular calcium (Fluo-4), HEK293 cells transiently expressing human 5-HT2B receptor, mean, n=2, read-out: EC50.

`CN(C)CC(C)(C)CNC(=O)N(CC1CC1)C(=O)[C@@H]1C[C@@H]2Cc3c(sc(N)c3C#N)C[C@H]2N(C)C1` [1-104, 1-{[(4aR,6R,8aR)-2-amino-3-cyano-8-methyl-4H,4aH,5H,6H,7H,8H,8aH,9H-thieno[3,2-g]quinolin-6-yl]carbonyl}-1-(cyclopropylmethyl)-3-[3-(dimethylamino)-2,2-dimethyl-propyl]urea]: the half-maximal effective concentration (EC50) in experiment [1] (setting [4]) was 4 nM; in experiment [2] (setting [5]), more than 10000 nM.
For `CCN(CC)CCNC(=O)N(CC)C(=O)[C@@H]1C[C@@H]2Cc3c(sc(N)c3C#N)C[C@H]2N(C)C1` [1-105, 1-{[(4aR,6R,8aR)-2-amino-3-cyano-8-methyl-4H,4aH,5H,6H,7H,8H,8aH,9H-thieno[3,2-g]quinolin-6-yl]carbonyl}-3-[2-(diethylamino)ethyl]-1-ethylurea], the EC50 was 5 nM in experiment [1] and more than 10000 nM in experiment [2].
For the molecule `CCN(C(=O)NC(C)(C)CN(C)C)C(=O)[C@@H]1C[C@@H]2Cc3c(sc(N)c3C#N)C[C@H]2N(C)C1` [1-106, 1-{[(4aR,6R,8aR)-2-amino-3-cyano-8-methyl-4H,4aH,5H,6H,7H,8H,8aH,9H-thieno[3,2-g]quinolin-6-yl]carbonyl}-3-[1-(dimethylamino)-2-methylpropan-2-yl]-1-ethylurea], the concentration giving a half-maximal response (EC50) in experiment [1] (setting [4]) was 4 nM; in experiment [2] (setting [5]) it was more than 10000 nM.
As for `CCN(C(=O)NCC(CC)(CC)N(C)C)C(=O)[C@@H]1C[C@@H]2Cc3c(sc(N)c3C#N)C[C@H]2N(C)C1` [1-107, 1-{[(4aR,6R,8aR)-2-amino-3-cyano-8-methyl-4H,4aH,5H,6H,7H,8H,8aH,9H-thieno[3,2-g]quinolin-6-yl]carbonyl}-3-[2-(dimethylamino)-2-ethylbutyl]-1-ethylurea], in experiment [3] (contralateral rotations), the “Total number or rotations” value turned out to be 4033.3. The same molecule displayed a Duration in experiment [3] (duration of contralateral rotation response) of 1068.3 min. Further, the EC50 in experiment [2] (setting [5]) was more than 10000 nM.
With `CN(C)CCNC(=O)N(CC1CC1)C(=O)[C@@H]1C[C@@H]2Cc3c(sc(N)c3C#N)C[C@H]2N(C)C1` [1-109, 1-{[(4aR,6R,8aR)-2-amino-3-cyano-8-methyl-4H,4aH,5H,6H,7H,8H,8aH,9H-thieno[3,2-g]quinolin-6-yl]carbonyl}-1-(cyclopropylmethyl)-3-[2-(dimethylamino)ethyl]urea], the EC50 in experiment [1] (setting [4]) was 3 nM; in experiment [2] (setting [5]), more than 10000 nM.
